Measurements as given in US10131673B2, “Piperidine substituted tricyclic pyrazolo[1,5-a]pyrimidine derivatives with inhibitory activity on the replication of the respiratory syncytial virus (RSV)” (priority 2014, dated 2018).

Assays:
rgRSV224 virus = assay: microbe, parasite or virus in culture; format: cell-based, respiratory syncytial virus (RSV); conditions: for RSV HELA pEC50: rgRSV224 virus MOI=1, HeLa cells, GFP expression three days post-virus exposure; for EC50: human respiratory syncytial virus, HeLa, 72 h, read-out: RSV HELA pEC50 (converted)

Procedure for HeLa cells: Black 384-well clear-bottom microtiter plates (Corning, Amsterdam, The Netherlands) were filled via acoustic drop ejection using the echo liquid handler (Labcyte, Sunnyvale, Calif.). 200 nL of compound stock solutions (100% DMSO) were transferred to the assay plates. 9 serial 4-fold dilutions of compound were made, creating per quadrant the same compound concentration. The assay was initiated by adding 10 μL of culture medium to each well (RPMI medium without phenol red, 10% FBS-heat inactivated, 0.04% gentamycin (50 mg/mL). All addition steps are done by using a multidrop dispenser (Thermo Scientific, Erembodegem, Belgium). Next, rgRSV224 virus (MOI=1) diluted in culture medium was added to the plates. rgRSV224 virus is an engineered virus that includes an additional GFP gene (Hallak L K, Spillmann D, Collins P L, Peeples M E. Glycosaminoglycan sulfation requirements for respiratory syncytial virus infection; Journal of virology (2000), 74(22), 10508-13) and was in-licensed from the NIH (Bethesda, Md., USA). Finally, 20 μL of a HeLa cell suspension (3,000 cells/well) were plated. Medium, virus- and mock-infected controls were included in each test. The wells contain 0.05% DMSO per volume. Cells were incubated at 37° C. in a 5% CO2 atmosphere. Three days post-virus exposure, viral replication was quantified by measuring GFP expression in the cells by an in house developed MSM laser microscope (Tibotec, Beerse, Belgium). The EC50 was defined as the 50% inhibitory concentration for GFP expression. In parallel, compounds were incubated for three days in a set of white 384-well microtiter plates (Corning) and the cytotoxicity of compounds in HeLa cells was determined by measuring the ATP content of the cells using the ATPlite kit (Perkin Elmer, Zaventem, Belgium) according to the manufacturer's instructions. The CC50 was defined as the 50% concentration for cytotoxicity.

Row | SMILES | RSV HELA pEC50 (rgRSV224 virus) | TOX HELA pCC50 (HeLa cells) | EC50 (rgRSV224 virus) [nM]
1 | Cc1nc2cc([C@H]3CCCCN3c3ncnc4cccc(C)c34)nn2c2c1CCCC2 [Compound P39] | 5.55 | 4.9 | –
2 | Cc1cccc2nc(NS(C)(=O)=O)nc(N3CCCCC3c3cc4nc5c(c(N6CCOCC6)n4n3)CCC5)c12 (stereo not drawn) [Compound P41, N-(5-methyl-4-(2-(8-morpholino-6,7-dihydro-5H-cyclopenta[d]pyrazolo-[1,5-a]pyrimidin-2-yl)piperidin-1-yl)quinazolin-2-yl)methanesulfonamide] | – | 4 | 229
3 | Cc1cccc2ncnc(N3CCCCC3c3cc4nc5c(c(N6CCOCC6)n4n3)COCC5)c12 (stereo not drawn) [Compound P30, 2-(1-(5-methylquinazolin-4-yl)piperidin-2-yl)-9-morpholino-6,8-dihydro-5H-pyrano[4,3-d]pyrazolo[1,5-a]pyrimidine] | – | 4 | 282
4 | Cc1ccc(NS(C)(=O)=O)c(C(=O)N2CCCCC2c2cc3nc4c(c(N5CCOCC5)n3n2)COCC4)c1 (stereo not drawn) [Compound P34, N-(4-methyl-2-(2-(9-morpholino-6,8-dihydro-5H-pyrano[4,3-d]pyrazolo-[1,5-a]pyrimidin-2-yl)piperidine-1-carbonyl)phenyl)methanesulfonamide] | – | 4.6 | 20.9
5 | FC(F)(F)c1cccc2ncnc(N3CCCCC3c3cc4nc5c(c(N6CCOCC6)n4n3)CCCC5)c12 (stereo not drawn) [Compound P11, 4-(2-(1-(5-(trifluoromethyl)quinazolin-4-yl)piperidin-2-yl)-5,6,7,8-tetrahydropyrazolo[5,1-b]quinazolin-9-yl)morpholine] | – | 4.7 | 676
6 | Cc1cccc2nc(Cl)nc(N3CCCCC3c3cc4nc5c(c(N6CCOCC6)n4n3)CCCC5)c12 (stereo not drawn) [Compound P6, 4-(2-(1-(2-chloro-5-methylquinazolin-4-yl)piperidin-2-yl)-5,6,7,8-tetrahydropyrazolo[5,1-b]quinazolin-9-yl)morpholine] | – | 4.8 | 1200
7 | Cc1cccc2ncnc(N3CCCCC3c3cc4nc5c(cn4n3)CCCC5)c12 (stereo not drawn) [Compound P18, 2-(1-(5-methylquinazolin-4-yl)piperidin-2-yl)-5,6,7,8-tetrahydropyrazolo-[5,1-b]quinazoline] | – | 4.3 | 3890
8 | Cc1cccc2ncnc(N3CCCC[C@@H]3c3cc4nc5c(c(C)n4n3)CCCC5)c12 [Compound P37] | 5.11 | 4.4 | –
9 | Cc1cccc2ncnc(N3CCCCC3c3cc4nc5c(c(N6CCCC6)n4n3)CCC5)c12 (stereo not drawn) [Compound P22, 2-(1-(5-methylquinazolin-4-yl)piperidin-2-yl)-8-(pyrrolidin-1-yl)-6,7-dihydro-5H-cyclopenta[d]pyrazolo[1,5-a]pyrimidine] | – | 4.6 | 282
10 | Cc1ccc(NS(C)(=O)=O)c(C(=O)N2CCCCC2c2cc3nc4c(c(N5CCOCC5)n3n2)CCOC4)c1 (stereo not drawn) [Compound P28, N-(4-methyl-2-(2-(9-morpholino-7,8-dihydro-5H-pyrano[3,4-d]pyrazolo-[1,5-a]pyrimidin-2-yl)piperidine-1-carbonyl)phenyl)methane-sulfonamide] | – | 4.6 | 355
11 | CCOc1nc(N2CCCCC2c2cc3nc4c(c(N5CCOCC5)n3n2)COCC4)c2c(C)cccc2n1 (stereo not drawn) [Compound P33, 2-(1-(2-ethoxy-5-methylquinazolin-4-yl)piperidin-2-yl)-9-morpholino-6,8-dihydro-5H-pyrano[4,3-d]pyrazolo[1,5-a]pyrimidine] | – | 4.4 | 813
12 | Fc1cccc2ncnc(N3CCCCC3c3cc4nc5c(c(N6CCOCC6)n4n3)CCCC5)c12 (stereo not drawn) [Compound P10, 4-(2-(1-(5-fluoroquinazolin-4-yl)piperidin-2-yl)-5,6,7,8-tetrahydropyrazolo-[5,1-b]quinazolin-9-yl)morpholine] | – | 4.6 | 891
13 | Cc1ccc(NS(C)(=O)=O)c(C(=O)N2CCCC[C@@H]2c2cc3nc4c(c(N5CCOCC5)n3n2)CCCC4)c1 [Compound P2, (R)—N-(4-methyl-2-(2-(9-morpholino-5,6,7,8-tetrahydropyrazolo[5,1-b]quinazolin-2-yl)-piperidine-1-carbonyl)phenyl)methanesulfonamide] | – | 4.3 | 13.2
14 | COc1cccc2ncnc(N3CCCCC3c3cc4nc5c(c(N6CCOCC6)n4n3)CCCC5)c12 (stereo not drawn) [Compound P12, 4-(2-(1-(5-methoxyquinazolin-4-yl)piperidin-2-yl)-5,6,7,8-tetrahydropyrazolo[5,1-b]quinazolin-9-yl)morpholine] | – | 4.4 | 75.9
15 | Cc1cccc2ncnc(N3CCCCC3c3cc4nc5c(c(N(C)C)n4n3)CCCC5)c12 (stereo not drawn) [Compound P16, N,N-dimethyl-2-(1-(5-methylquinazolin-4-yl)piperidin-2-yl)-5,6,7,8-tetrahydropyrazolo[5,1-b]quinazolin-9-amine] | – | 4 | 407
16 | Cc1cccc2ncnc(N3CCCC[C@H]3c3cc4nc5c(c(C)n4n3)CCCC5)c12 [Compound P38] | 6.79 | 4.6 | –
17 | Cc1nc2cc(C3CCCCN3c3ncnc4cccc(C)c34)nn2c2c1CCCC2 (racemic) [Compound P36, 5-methyl-2-(1-(5-methylquinazolin-4-yl)piperidin-2-yl)-6,7,8,9-tetrahydropyrazolo[1,5-a]quinazoline] | – | 4.6 | 977
18 | Cc1ccc(NS(C)(=O)=O)c(C(=O)N2CCCCC2c2cc3nc4c(c(N5CCOCC5)n3n2)CCC4)c1 (stereo not drawn) [Compound P20, N-(4-methyl-2-(2-(8-morpholino-6,7-dihydro-5H-cyclopenta[d]pyrazolo-[1,5-a]pyrimidin-2-yl)piperidine-1-carbonyl)phenyl)methanesulfonamide] | – | 4.2 | 22.9
19 | Cc1ccc(NS(C)(=O)=O)c(C(=O)N2CCCCC2c2cc3nc(N(C)C)c4c(n3n2)N(C)CCC4)c1 (stereo not drawn) [Compound P27, N-(2-(2-(5-(dimethylamino)-9-methyl-6,7,8,9-tetrahydropyrazolo-[1,5-a]pyrido[3,2-e]pyrimidin-2-yl)piperidine-1-carbonyl)-4-methylphenyl)methane-sulfonamide] | – | 4.3 | 2.04
20 | Cc1ccc(NS(C)(=O)=O)c(C(=O)N2CCCCC2c2cc3nc4c(c(N(C)C)n3n2)CCCC4)c1 (stereo not drawn) [Compound P15, N-(2-(2-(9-(dimethylamino)-5,6,7,8-tetrahydropyrazolo[5,1-b]quinazolin-2-yl)piperidine-1-carbonyl)-4-methylphenyl)methanesulfonamide] | – | 4.6 | 1.78
21 | Cc1ccc(NS(C)(=O)=O)c(C(=O)N2CCCCC2c2cc3nc4c(c(O)n3n2)CCCC4)c1 (stereo not drawn) [Compound P14, N-(2-(2-(9-hydroxy-5,6,7,8-tetrahydropyrazolo[5,1-b]quinazolin-2-yl)-piperidine-1-carbonyl)-4-methylphenyl)methanesulfonamide] | – | 4.3 | 40.7
22 | Cc1cccc2ncnc(N3CCCCC3c3cc4nc5c(c(N6CCOCC6)n4n3)CCCC5)c12 (stereo not drawn) [Compound P5, 4-(2-(1-(5-methylquinazolin-4-yl)piperidin-2-yl)-5,6,7,8-tetrahydropyrazolo[5,1-b]quinazolin-9-yl)morpholine] | – | 4.6 | 275
23 | Cc1ccc(NS(C)(=O)=O)c(C(=O)N2CCCCC2c2cc3nc4c(cn3n2)CCCC4)c1 (stereo not drawn) [Compound P17, N-(4-methyl-2-(2-(5,6,7,8-tetrahydropyrazolo[5,1-b]quinazolin-2-yl)-piperidine-1-carbonyl)phenyl)methanesulfonamide] | – | 4.6 | 97.7
24 | Cc1cccc2ncnc(N3CCCCC3c3cc4nc5c(c(N6CCOCC6)n4n3)CCCCC5)c12 (stereo not drawn) [Compound P24, 4-(2-(1-(5-methylquinazolin-4-yl)piperidin-2-yl)-6,7,8,9-tetrahydro-5H-cyclohepta[d]pyrazolo[1,5-a]pyrimidin-10-yl)morpholine] | – | 4.8 | 9550
25 | Cc1nc2cc([C@@H]3CCCCN3c3ncnc4cccc(C)c34)nn2c2c1CCCC2 [Compound P40] | 6.7 | 4.7 | –
26 | Cc1ccc2nc(NS(C)(=O)=O)nc(N3CCCCC3c3cc4nc5c(c(N6CCOCC6)n4n3)CCCC5)c2c1 (stereo not drawn) [Compound P9, N-(6-methyl-4-(2-(9-morpholino-5,6,7,8-tetrahydropyrazolo[5,1-b]-quinazolin-2-yl)piperidin-1-yl)quinazolin-2-yl)methanesulfonamide] | – | 4.3 | 13.5
27 | Cc1ccc2ncnc(N3CCCCC3c3cc4nc5c(c(N6CCOCC6)n4n3)CCCC5)c2c1 (stereo not drawn) [Compound P4, 4-(2-(1-(6-methylquinazolin-4-yl)piperidin-2-yl)-5,6,7,8-tetrahydropyrazolo[5,1-b]quinazolin-9-yl)morpholine] | – | 4.7 | 166
28 | Cc1cccc2ncnc(N3CCCCC3c3cc4nc5c(c(C)n4n3)CCCC5)c12 (stereo not drawn) [Compound P35, 9-methyl-2-(1-(5-methylquinazolin-4-yl)piperidin-2-yl)-5,6,7,8-tetrahydropyrazolo[5,1-b]quinazoline] | – | 4.6 | 776
29 | Cc1ccc(NS(C)(=O)=O)c(C(=O)N2CCCCC2c2cc3nc4c(c(N5CCOCC5)n3n2)CCCC4)c1 (racemic) [Compound P1, N-(4-methyl-2-(2-(9-morpholino-5,6,7,8-tetrahydropyrazolo[5,1-b]quinazolin-2-yl)piperidine-1-carbonyl)phenyl)methanesulfonamide] | – | 4.4 | 1.78
30 | Cc1ccc(NS(C)(=O)=O)c(C(=O)N2CCCCC2c2cc3nc4c(c(N)n3n2)CCCC4)c1 (stereo not drawn) [Compound P19, N-(2-(2-(9-amino-5,6,7,8-tetrahydropyrazolo[5,1-b]quinazolin-2-yl)-piperidine-1-carbonyl)-4-methylphenyl)methanesulfonamide] | – | 4.3 | 19.5
